Measured values published in patent US10278940B2, “Use of 2,5-dihydroxybenzene compounds and derivatives for the treatment of skin cancer” (AmDerma Pharmaceuticals, LLC, priority 2006, dated 2019).

Key:
[1] = tested on: rat glioma C6 cells; assay: Rat glioma C6 cell proliferation, crystal violet staining; type: cell-based; conditions: 48 h; for C6 cell proliferation: relative to control; for rat glioma cell proliferation (absorbance at 595 nm, % of control): 500 μM
Method: The cell line used was rat glioma C6 cells. The cells were cultured as previously described (Cuevas P et al. Neural Res, 2005). The cells were cultured as adherent cells in Dulbecco's modified Eagle's medium, supplemented with 7.5% (v/v) of fetal bovine serum, 10 μg/ml of streptomycin and 10 units/ml of penicillin. The tumor cells were seeded in 24-well plates at a density of 10,000 cells/well, and were incubated at 37° C. in a humidified chamber with 5% CO2. Once adhered, the cells were treated or not (controls) with 2,5-dihydroxybenzoate at 100, 200, 500 or 1000 µM and they were allowed to proliferate for 48 h. After this time the glioma cell proliferation was evaluated by means of staining the fixed cells with crystal violet. The number of cells is proportional to the amount of retained dye, which was spectrophotometrically determined by measuring the absorbance at 595 nm once the dye was extracted from the cells.
(§1) The cell line used was the C6 cell line and the experiment was carried out as described in Example 2. Once adhered, the cells were treated or not (controls) with increasing concentrations of 2,5-DHC (10, 25, 50 and 100 μM) and they were allowed to proliferate for 48 h. After this time the glioma cell proliferation was evaluated by means of staining the fixed cells with crystal violet. The number of cells is proportional to the amount of retained dye, which was determined spectrophotometrically by measuring absorbance at 595 nm once the dye was extracted from the cells.
as §1, with “examples 2 and 3.” for “Example 2.”, “(5A-2HBS) (500 μM) or (2A-5HBS) (500” for “increasing concentrations of 2,5-DHC (10, 25, 50 and 100”, “measuring the” for “measuring”

[2] = tested on: bFGF-induced fibrosis; assay: bFGF-induced fibrosis around subcutaneously implanted gelatin sponges; type: in vivo, Sprague-Dawley rats; conditions: 100 μM in sponge with bFGF 10 μg/ml and heparin; subcutaneous; 7 days
Method: Sterile gelatin sponges ([…]; Curaspon Dental, Clinimed Holding, Zwanenburg, The Netherlands) were subcutaneously implanted in the dorsal region of the neck in Sprague-Dawley rats after the induction of intraperitoneal anesthesia. The animals were split into two groups: group A, the sponges were moistened with 200 III of saline solution which contained 25 μg/ml of heparin and 10 μg/ml of basic FGF (bFGF); group B, the sponges were moistened in the same solution as in group A, but which solution further contained 2,5-dihydroxybenzoate (100 μM). After 7 days, the sponges and the surrounding subcutaneous fat were removed and histologically analyzed.

[3] = molecular target: T1, Fibroblast Growth Factor-1 (FGF-1) (Homo sapiens, UniProt P05230); assay: Crystal diffraction of FGF-1:compound complexes; conditions: electron density contoured at 1σ; acetoxyl groups conserved on binding
T1 construct: host or cells: added to Balb/c 3T3 fibroblast cultures
T1 sequence (P05230 whole entry, species assumed): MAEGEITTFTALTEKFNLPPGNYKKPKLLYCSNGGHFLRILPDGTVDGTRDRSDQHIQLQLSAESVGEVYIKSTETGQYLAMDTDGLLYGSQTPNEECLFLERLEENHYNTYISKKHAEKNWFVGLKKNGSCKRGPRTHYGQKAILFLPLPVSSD
Method: Based on the crystal diffraction of the FGF-1:2-acetoxy-5-hydroxybenzene sulfonic acid, FGF-1:5-acetoxy-2-hydroxybenzene sulfonic acid and FGF-1:2,5-diacetoxybenzene sulfonic acid complexes, the structures of the complexes were calculated and represented. FIGS. 13, 14 and 15, which show the surface of the dyed protein according to its electrostatic potential (light grey, negative charge; dark grey, positive charge; white, regions with no charge), show the manner in which 2-acetoxy-5-hydroxybenzene sulfonic acid, 5-acetoxy-2-hydroxybenzene sulfonic acid and 2,5-diacetoxybenzene sulfonic acid interact, respectively, with FGF-1.

[4] = molecular target: T1, Fibroblast Growth Factor-1 (FGF-1); assay: Mitogenesis induced by FGF-1 in quiescent Balb/c 3T3 fibroblast cultures; type: cell-based
Method: The evaluated compounds were used in the form of potassium salt, except in the first case which used calcium salt. The experiments were carried out as described in Femandez-Tomero C et al. J Bioi Chern, 2003.

[5] = tested on: human prostate cancer PC-3 cells; assay: Human tumor cell proliferation, XTT viability method; type: cell-based; conditions: 1-200 μM; 96 h
Method: (§2) The cell lines used were the human prostate cancer PC-3 cells and human lung cancer A549 cells. 2000 cells were seeded per well in 96-well plates and they were allowed to adhere overnight. Then the cells were treated or not (controls) with potassium 2,5-diacetoxybenzene sulfonate (DABS) (1-200 μM) and they were allowed to proliferate for 96 h. After this time, the PC-3 and A549 cell proliferation was evaluated by determining the final number of cells by means of the viability method of yellow tetrazolium salt (XTT). The data were expressed as a percentage of the control (without treatment).

[6] = tested on: human lung cancer A549 cells; assay: as above; type: cell-based; conditions: 1-200 μM; 96 h
Method: as §2

[7] = tested on: subcutaneous gliomas (rat C6 glioma cells); assay: Progression of established subcutaneous C6 gliomas in rats; type: in vivo
Method: Rat C6 glioma cells were cultured as previously described (Cuevas P et al. Neural Res, 2005). The C6 cells cultured to confluence in 75 cm^2 flasks were removed and implanted under the abdominal skin in anesthetized rats. The existence of a tumor in the implantation area was observed five days after the implantation of the tumor cells. Only the rats in which the existence of a tumor was observed were randomly assigned to be treated with daily intraperitoneal injections of 2,5-dihydroxybenzene sulfonate (DHBS; 100 mg/kg/day), 2,5-diacetoxybenzene sulfonate (DABS; 100 mg/kg/day) or the carrier (0.9% NaCl). After 10 days of treatment, the subcutaneous gliomas were removed and their volume was calculated according to the formula V=4/3π.(L/2).(A/2)^2 (in mm^3) where L is the larger diameter and A is the smaller diameter, both expressed in mm.

[8] = tested on: human prostate cancer PC-3 cells; assay: Subcutaneous PC-3 prostate cancer cell implantation model in athymic mice; type: in vivo, athymic mice (Nu/Nu); conditions: 100 mg/kg daily i.p. for 15 days, vs carrier
Method: 5×10^6 human prostate cancer PC-3 cells were subcutaneously injected in male athymic mice (Nu/Nu) of 6-8 weeks of age and weighing 20-26 g. Ten days after the implantation of the tumor cells, the mice were randomly split into two groups: one of them received a daily injection of potassium 2,5-diacetoxybenzene sulfonate (DABS) by intraperitoneal route at a dose of 100 mg/kg dissolved in saline (0.9% NaCl) whereas the other group received a daily injection of carrier (saline). The treatments were administered for 15 days. The volumes of the tumors induced by the implantation of PC-3 cells were measured through the skin on alternating days using a Vernier caliper. The volume was calculated using the formula […], where D is the larger diameter in mm, d is the smaller diameter in mm and V is the volume in mm^3. At the end of treatment, the mice were sacrificed and the tumors were weighed.

[9] = tested on: subcutaneous gliomas (rat C6 glioma cells); assay: Apoptosis in sections of subcutaneous gliomas (hematoxylin and eosin); type: in vivo, rats; conditions: 100 mg/kg/day i.p. for 10 days; vs carrier
Excerpt: Tumor cells elude the programmed cell death process or apoptosis that normal cells experience. Apoptosis induction in tumor cells is one way to confront the development of a tumor. To evaluate the effect of potassium 2,5-[…] sulfonate (DABS) on tumor cell apoptosis, 6).lm thick sections of the subcutaneous gliomas described in example 4 were made. The sections were stained with hematoxylin and eosin and observed at a magnification of 313 times using immersion oil. In these conditions, cell apoptosis is shown by the existence of apoptotic bodies appearing as strongly chromogenic granules in the cell nucleus which is frequently fragmented.

O=C(O)C=Cc1cc(O)ccc1O [2,5-DHC, 3-(2,5-dihydroxyphenyl)-2-propenoic acid]
C6 cell proliferation ([1]; 50 µM): reduced the C6 cell proliferation to less than half
C6 cell proliferation ([1]; 100 μM): reduced to one tenth

O=C([O-])c1cc(O)ccc1O.[K+] [2,5-dihydroxybenzoate, potassium 2,5-dihydroxybenzoate]
bFGF-induced fibrosis (fibroblasts in septa of connective tissue of adipose tissue) [2]: reduces bFGF-induced fibrosis
rat glioma C6 cell proliferation (absorbance at 595 nm) ([1]; 100, 200, 500 or 1000 μM): inhibited rat glioma C6 cell proliferation in a concentration-dependent manner
statistical significance of the inhibition of C6 cell proliferation ([1]; at 500 and 1000 μM, vs control): statistically significant

CC(=O)Oc1ccc(O)cc1S(=O)(=O)[O-].[K+] [2A-5HBS, potassium 2-acetoxy-5-hydroxybenzene sulfonate]
rat glioma cell proliferation (absorbance at 595 nm, % of control) [1]: caused the inhibition of rat glioma cell proliferation
binding site on FGF-1 in the co-crystal [3]: occupy a site that is very close to the one that has been described occupied by 2,5-dihydroxybenzene sulfonic acid

CC(=O)Oc1ccc(O)c(S(=O)(=O)[O-])c1.[K+] [5A-2HBS, potassium 5-acetoxy-2-hydroxybenzene sulfonate]
rat glioma cell proliferation (absorbance at 595 nm, % of control) [1]: caused the inhibition of rat glioma cell proliferation
binding site on FGF-1 in the co-crystal [3]: occupy a site that is very close to the one that has been described occupied by 2,5-dihydroxybenzene sulfonic acid
mitogenesis induced by FGF-1 [4]: inhibition of mitogenesis induced by FGF-1

CC(=O)Oc1ccc(OC(C)=O)c(S(=O)(=O)[O-])c1.[K+] [DABS, potassium 2,5-diacetoxybenzene sulfonate]
PC-3 cell proliferation (number of viable cells, % of control) [5]: significant inhibition
A549 cell proliferation (number of viable cells, % of control) [6]: significant inhibition
probability of being tumor-free (χ2 test) ([7]; DABS group vs DHBS group, 100 mg/kg/day each): greater probability of being tumor-free
rats tumor-free when treatment ended ([7]; i.p. 100 mg/kg/day for 10 days, all rats had established tumors before treatment): 4 rats
tumor growth (tumor volume measured through the skin) ([8]; started 10 days after implantation): significantly reduced the human prostate cell tumor growth
weight of the extracted tumor when treatment ended [8]: significant reduction of the weight of the extracted tumor
tumor cells in apoptosis in glioma sections [9]: a large number of tumor cells in apoptosis can be observed
binding site on FGF-1 in the co-crystal [3]: occupy a site that is very close to the one that has been described occupied by 2,5-dihydroxybenzene sulfonic acid
mitogenesis induced by FGF-1 [4]: inhibition of mitogenesis induced by FGF-1

O=S(=O)([O-])c1cc(O)ccc1O.[K+] [DHBS, potassium 2,5-dihydroxybenzene sulfonate, reference compound]
average size (volume) of the subcutaneous gliomas ([7]; i.p. 100 mg/kg/day for 10 days, started on day 5 after implantation, vs carrier): less than that of the rats treated with carrier
mitogenesis induced by FGF-1 [4]: inhibition of the mitogenesis induced by fibroblast growth factor-1

calcium 2-acetoxy-5-hydroxybenzene sulfonate
mitogenesis induced by FGF-1 [4]: inhibition of mitogenesis induced by FGF-1
